In the first assay the test system is MCH receptors. Put plainly: MCH receptor activity class (method not given).
Conditions: not given
Regarding `Cc1cccc(C(=O)N[C@H]2CC[C@@H](Nc3ncc(C)c(N(C)C)n3)CC2)c1` [Example 2562, N-(cis-4-{[4-(dimethylamino)-5-methylpyrimidin-2-yl]amino}cyclohexyl)-3-methylbenzamide], the class was found to be 1.

Staying with this assay, now noted: MCH receptor activity class 1-3 (percent of control at 10^-7 M or IC50).
For the compound “N-[(cis-4-{[4-(dimethylamino)pyrimidin-2-yl]amino}cyclohexyl)methyl]-N′-(2-ethyl-6-isopropylphenyl)urea [compound 2422]”, the class was 1 (Class 1: The value of percent of control at 10^−7 M was less than 40% or the value of IC50 was less than 50 nM.).
With `CN(C)c1nc(N[C@H]2CC[C@@H](CNC(=O)Nc3c(Br)cc(Br)cc3Br)CC2)nc2c1CCCC2` [compound 2462], the class is reported as 1 (Class 1: The value of percent of control at 10^−7 M was less than 40% or the value of IC50 was less than 50 nM.).

The same assay, now with this note: MCH receptor; class by percent of control at 10^-7 M or IC50.
Regarding `C/C(=C\c1ccccc1)C(=O)NC[C@H]1CC[C@@H](Nc2cc(N(C)C)c3ccccc3n2)CC1` [compound 214], the class is 3 (Class 3 The value of percent of control at 10^−7 M was more than 60% or the value of IC50 was more than 200 nM.).
On the same count and under the same terms, the same measure for `Cc1cc(C(=O)NC[C@H]2CC[C@@H](Nc3cc(N(C)C)c4ccccc4n3)CC2)c(C)o1` [compound 198, N-[(cis-4-{[4-(dimethylamino)quinolin-2-yl]amino}cyclohexyl)methyl]-2,5-dimethyl-3-furamide]: 3 (Class 3 The value of percent of control at 10^−7 M was more than 60% or the value of IC50 was more than 200 nM.).
Still for that read-out and setting: the same measure for `CN(C)c1cc(N[C@H]2CC[C@@H](CNC(=O)c3ccc(Cl)c(Cl)c3)CC2)nc2ccccc12` [compound 158]: 3 (Class 3 The value of percent of control at 10^−7 M was more than 60% or the value of IC50 was more than 200 nM.).

The assay is the same for the next values; noted with them: activity class 1-3: percent of control at 10^-7 M or IC50.
With `CN(C)c1nc(NC2CCC(CNC(=O)OCc3ccccc3)CC2)nc2c1CCCC2` (stereo not shown) [compound 1611], the class is recorded as 3 (Class 3 The value of percent of control at 10^−7 M was more than 60% or the value of IC50 was more than 200 nM.).
On to `CN(C)c1ccnc(N[C@H]2CC[C@@H](NC(=O)OCC(Cl)(Cl)Cl)CC2)n1` [compound 1638], for which the class is listed as 3 (Class 3 The value of percent of control at 10^−7 M was more than 60% or the value of IC50 was more than 200 nM.).

Still in this assay, the particulars now being: activity class per percent of control at 10^-7 M or IC50.
Consider `CN(C)c1nc(N[C@H]2CC[C@@H](NC(=O)Cc3c(-c4ccccc4)[nH]c4ccccc34)CC2)nc2c1CCCC2` [compound 1005], for which the class is listed as 1 (Class 1: The value of percent of control at 10^−7 M was less than 40% or the value of IC50 was less than 50 nM.).

The same assay, now with this note: class 1-3 by percent of control at 10^-7 M or IC50.
For `CN(C)c1nc(N[C@H]2CC[C@@H](CNC(=O)C(c3ccccc3)c3ccccc3)CC2)nc2c1CCCC2` [compound 594], the class is on record as 3 (Class 3 The value of percent of control at 10^−7 M was more than 60% or the value of IC50 was more than 200 nM.).
Same read-out and setting: the same measure for `CN(C)c1nc(N[C@H]2CC[C@@H](NC(=O)c3cc(Cl)sc3Cl)CC2)nc2c1CCCC2` [compound 519, 2,5-dichloro-N-(cis-4-{[4-(dimethylamino)-5,6,7,8-tetrahydroquinazolin-2-yl]amino}cyclohexyl)thiophene-3-carboxamide]: 1 (Class 1: The value of percent of control at 10^−7 M was less than 40% or the value of IC50 was less than 50 nM.); for `CN(C)c1nc(N[C@H]2CC[C@@H](CNC(=O)c3cc(Cl)cc(Cl)c3)CC2)nc2c1CCCC2` [compound 592]: 3 (Class 3 The value of percent of control at 10^−7 M was more than 60% or the value of IC50 was more than 200 nM.).
For `COc1ccc(Br)c(C(=O)N[C@H]2CC[C@@H](Nc3nc4c(c(N(C)C)n3)CCCC4)CC2)c1` [compound 557], the class is reported as 3 (Class 3 The value of percent of control at 10^−7 M was more than 60% or the value of IC50 was more than 200 nM.).

The same assay, now with this note: class by percent of control at 10^-7 M or IC50.
`COc1ccc2[nH]cc(CN[C@H]3CC[C@@H](Nc4nccc(N(C)C)n4)CC3)c2c1` [compound 1210]: the class is 3 (Class 3 The value of percent of control at 10^−7 M was more than 60% or the value of IC50 was more than 200 nM.).
As to `CN(C)c1ccnc(N[C@H]2CC[C@@H](CNC(=O)c3cc(Cl)cc(Cl)c3)CC2)n1` [compound 375], the class is reported as 2 (Class 2: The value of percent of control at 10^−7 M was from 40% to 60% or the value of IC′50 was from 50 nM to 200 nM.).
Regarding `CN(C)c1ccnc(N[C@H]2CC[C@@H](NC(=S)Nc3ccc(Br)cc3)CC2)n1` [compound 2257], the class is 3 (Class 3 The value of percent of control at 10^−7 M was more than 60% or the value of IC50 was more than 200 nM.).
`CN(C)c1ccnc(N[C@H]2CC[C@@H](NC(=O)Nc3ccccc3[N+](=O)[O-])CC2)n1` [compound 2237]: the class is given as 3 (Class 3 The value of percent of control at 10^−7 M was more than 60% or the value of IC50 was more than 200 nM.).
Same read-out and setting: the same measure for `Cc1ccc(CNC[C@H]2CC[C@@H](Nc3nccc(N(C)C)n3)CC2)cc1` [compound 1307]: 3 (Class 3 The value of percent of control at 10^−7 M was more than 60% or the value of IC50 was more than 200 nM.); for `CN(C)c1nc(N[C@H]2CC[C@@H](CNCc3ccc(O)cc3Cl)CC2)nc2c1CCCC2` [compound 1388]: 2 (Class 2: The value of percent of control at 10^−7 M was from 40% to 60% or the value of IC′50 was from 50 nM to 200 nM.); for `CN(C)c1ccnc(N[C@H]2CC[C@@H](NC(=O)c3ccc(C#N)cc3)CC2)n1` [compound 295]: 3 (Class 3 The value of percent of control at 10^−7 M was more than 60% or the value of IC50 was more than 200 nM.).
Regarding `Cc1cc(NC(=O)N[C@H]2CC[C@@H](Nc3cc(N(C)C)c4ccccc4n3)CC2)c(C(F)(F)F)o1` [compound 2122], the class was 3 (Class 3 The value of percent of control at 10^−7 M was more than 60% or the value of IC50 was more than 200 nM.).
For the compound `COc1ccc(NC(=O)N[C@H]2CC[C@@H](Nc3cc(N(C)C)c4ccccc4n3)CC2)c(C)c1` [compound 2156], the class is 3 (Class 3 The value of percent of control at 10^−7 M was more than 60% or the value of IC50 was more than 200 nM.).
On to `Cc1ccc(CNC[C@H]2CC[C@@H](Nc3nc4c(c(N(C)C)n3)CCCC4)CC2)cc1` [compound 1428], for which the class is on record as 3 (Class 3 The value of percent of control at 10^−7 M was more than 60% or the value of IC50 was more than 200 nM.).
Same read-out and setting: the same measure for `Cc1cccc(C(C)(C)C)c1NC(=O)N[C@H]1CC[C@@H](Nc2cc(N(C)C)c3ccccc3n2)CC1` [compound 2113, N-(2-tert-butyl-6-methylphenyl)-N′-(cis-4-{[4-(dimethylamino)quinolin-2-yl]amino}cyclohexyl)urea]: 1 (Class 1: The value of percent of control at 10^−7 M was less than 40% or the value of IC50 was less than 50 nM.); for `CN(C)c1ccnc(N[C@H]2CC[C@@H](NC(=O)Nc3ccccc3C(F)(F)F)CC2)n1` [compound 2186]: 3 (Class 3 The value of percent of control at 10^−7 M was more than 60% or the value of IC50 was more than 200 nM.).
Take `COc1cc(COC(=O)N[C@H]2CC[C@@H](Nc3nccc(N(C)C)n3)CC2)c([N+](=O)[O-])cc1OC` [compound 337]: the class is listed as 3 (Class 3 The value of percent of control at 10^−7 M was more than 60% or the value of IC50 was more than 200 nM.).
`CCCN(CCC)C(=O)[C@H](CCC(=O)N[C@H]1CC[C@@H](Nc2nccc(N(C)C)n2)CC1)NC(=O)c1ccccc1` (relative stereo) [compound 870]: the class is reported as 2 (Class 2: The value of percent of control at 10^−7 M was from 40% to 60% or the value of IC′50 was from 50 nM to 200 nM.).
On the same count and under the same terms, the same measure for `CN(C)c1ccnc(N[C@H]2CC[C@@H](CNC(=O)Cc3ccc(Cl)cc3)CC2)n1` [compound 373]: 2 (Class 2: The value of percent of control at 10^−7 M was from 40% to 60% or the value of IC′50 was from 50 nM to 200 nM.); for `C[C@H](C(=O)N[C@H]1CC[C@@H](Nc2cc(N(C)C)c3ccccc3n2)CC1)c1cccc(C(=O)c2ccccc2)c1` [compound 738]: 3 (Class 3 The value of percent of control at 10^−7 M was more than 60% or the value of IC50 was more than 200 nM.).
Still for that read-out and setting: the same measure for `CN(C)c1nc(N[C@H]2CC[C@@H](CNC(=O)c3c(F)cccc3F)CC2)nc2c1CCCC2` [compound 664]: 3 (Class 3 The value of percent of control at 10^−7 M was more than 60% or the value of IC50 was more than 200 nM.).
As for `CN(C)c1nc(N[C@H]2CC[C@@H](CNC(=O)Nc3cc(Cl)cc(Cl)c3)CC2)nc2c1CCCC2` [compound 2485], the class is 3 (Class 3 The value of percent of control at 10^−7 M was more than 60% or the value of IC50 was more than 200 nM.).
As to `CCc1ccc(NC(=O)N[C@H]2CC[C@@H](Nc3nc4c(c(N(C)C)n3)CCCC4)CC2)cc1` [compound 1824], the class is 3 (Class 3 The value of percent of control at 10^−7 M was more than 60% or the value of IC50 was more than 200 nM.).
In the case of `COc1cc([N+](=O)[O-])ccc1NC(=S)N[C@H]1CC[C@@H](Nc2nc3c(c(N(C)C)n2)CCCC3)CC1` [compound 1749], the class is 3 (Class 3 The value of percent of control at 10^−7 M was more than 60% or the value of IC50 was more than 200 nM.).
Turning to `COc1ccc(C)cc1NC(=S)N[C@H]1CC[C@@H](Nc2cc(N(C)C)c3ccccc3n2)CC1` [compound 2270], the class was 3 (Class 3 The value of percent of control at 10^−7 M was more than 60% or the value of IC50 was more than 200 nM.).
Consider `COc1ccc(CN[C@H]2CC[C@@H](Nc3nc4c(c(N(C)C)n3)CCCC4)CC2)c(OC)c1` [compound 1335], for which the class is 3 (Class 3 The value of percent of control at 10^−7 M was more than 60% or the value of IC50 was more than 200 nM.).

The assay is the same for the next values; noted with them: class by percent of control at 10^−7 M or IC50.
In the case of `Cc1cc(N(C)C)nc(N[C@H]2CC[C@@H](NC(=O)c3ccc(Br)cc3)CC2)n1` [compound 2973, 4-bromo-N-(cis-4-{[4-(dimethylamino)-6-methylpyrimidin-2-yl]amino}cyclohexyl)benzamide], the class is reported as 1 (Class 1: The value of percent of control at 10^−7 M was less than 40% or the value of IC50 was less than 50 nM.).
Same read-out and setting: the same measure for `Cc1ccccc1C(=O)N[C@H]1CC[C@@H](Nc2ncc(C)c(N(C)C)n2)CC1` [compound 2917]: 3 (Class 3 The value of percent of control at 10^−7 M was more than 60% or the value of IC50 was more than 200 nM.).

Source of the values: patent publication US20050197350A1, “Novel quinoline, tetrahydroquinazoline, and pyrimidine derivatives and methods of treatment related to the use thereof” (TAISHO PHARMACEUTICAL CO., LTD., priority 2003, published 2005).
